# Assay results reported in article PMC8621101, “Inhibition of XPO-1 Mediated Nuclear Export through the Michael-Acceptor Character of Chalcones” (Pharmaceuticals, 2021).
# Tests used:
# XPO1 = molecular target: T1, XPO1 (Homo sapiens, UniProt O14980); experiment: XPO1 phenotypic reporter assay in HeLa NLSSV40-AcGFP-NESPKI cells; format: cell-based; details: HeLa GFP reporter cell line; for IC50: 2 h treatment, mean ± SEM of two independent experiments, read-out: XPO1 inhibition IC50
# T1 construct: the compounds were assayed in a reporter cell line based on the subcellular localization of a XPO1-dependent GFP reporter cargo protein; endogenous in cells; host or cells: HeLa cells stably transfected with the NLSSV40-AcGFP-NESPKI reporter (only the reporter cargo is transfected, not XPO1)
# T1 sequence (O14980 whole entry): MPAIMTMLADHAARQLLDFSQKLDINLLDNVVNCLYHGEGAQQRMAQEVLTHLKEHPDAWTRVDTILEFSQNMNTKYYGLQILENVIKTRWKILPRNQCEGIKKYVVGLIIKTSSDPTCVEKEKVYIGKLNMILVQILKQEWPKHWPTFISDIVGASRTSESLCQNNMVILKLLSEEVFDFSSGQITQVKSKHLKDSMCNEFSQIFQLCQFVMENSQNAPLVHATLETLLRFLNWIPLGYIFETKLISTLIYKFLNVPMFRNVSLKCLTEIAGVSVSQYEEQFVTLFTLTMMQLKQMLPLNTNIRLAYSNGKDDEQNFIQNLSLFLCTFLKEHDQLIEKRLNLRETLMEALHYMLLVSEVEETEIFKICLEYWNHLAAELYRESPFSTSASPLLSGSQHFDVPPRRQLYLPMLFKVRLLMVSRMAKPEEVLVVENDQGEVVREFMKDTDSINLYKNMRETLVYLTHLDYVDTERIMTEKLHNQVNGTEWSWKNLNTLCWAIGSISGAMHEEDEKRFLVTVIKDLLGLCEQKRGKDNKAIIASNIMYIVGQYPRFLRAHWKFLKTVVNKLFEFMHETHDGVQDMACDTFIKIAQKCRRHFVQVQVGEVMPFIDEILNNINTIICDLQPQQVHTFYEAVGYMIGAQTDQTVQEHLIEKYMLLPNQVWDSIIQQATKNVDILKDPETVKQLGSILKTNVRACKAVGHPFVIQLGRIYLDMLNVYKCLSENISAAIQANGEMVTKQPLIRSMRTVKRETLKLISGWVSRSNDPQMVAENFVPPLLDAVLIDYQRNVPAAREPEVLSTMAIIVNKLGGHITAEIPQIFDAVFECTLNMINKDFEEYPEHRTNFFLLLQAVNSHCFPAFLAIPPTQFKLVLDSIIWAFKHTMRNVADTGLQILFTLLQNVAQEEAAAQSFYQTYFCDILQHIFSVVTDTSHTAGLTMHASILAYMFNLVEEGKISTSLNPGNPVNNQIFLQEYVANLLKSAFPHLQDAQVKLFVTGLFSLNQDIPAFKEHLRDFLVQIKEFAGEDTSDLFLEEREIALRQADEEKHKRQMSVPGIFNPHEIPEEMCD
# Method: Stably transfected HeLa NLSSV40-AcGFP-NESPKI were cultured as described in Vercruysse et al.
# To study the XPO1-mediated nuclear export, stably transfected HeLa NLSSV40-AcGFP-NESPKI reporter cells were seeded at 8000 cells per well in 96-well all clear tissue culture plates (TPP). After overnight incubation, cells were treated with different doses of compound or solvent (DMSO) for 2 h and then fixed and counterstained with DAPI. Fluorescence was read on an ArrayScan XTI High Content Reader (Thermo Fisher Scientific, Waltham, MA, USA). Nuclear and cytoplasmic compartments were segmented and their average pixel intensities in the green channel were quantitated employing the HCS Studio software. Genedata Screener software was used for dose-response curve fitting, and calculation of EC50 values was based on the percentage of cells having a predominant nuclear localisation (ratio of nuclear to cytoplasmic signal equal or above 1.4) of the reporter construct. Compounds were tested in two independent experiments and represented as mean ± SEM.
# Hap-1 cells = experiment: Cell proliferation assay (IncuCyte confluence), Hap-1; format: cell-based; details: Homo sapiens, HAP1; Hap-1 chronic myeloid leukemia; 72 h; mean of two independent experiments ± SEM; read-out: IC50 antiproliferative activity Hap-1
# Method: (§1) Cancer cell lines HCT-116, NCI-H460, HL-60, K-562 and Z-138 were acquired from the American Type Culture Collection (ATCC, Manassas, VA, USA). The DND-41 cell line was purchased from the Deutsche Sammlung von Mikroorganismen und Zellkulturen (DSMZ Leibniz-Institut, Brunswick, Germany), and the HAP-1 cell line was ordered from Horizon Discovery (Horizon Discovery Group, Water Beach, UK). All cell lines were cultured as recommended by the suppliers. Culture media were purchased from Gibco Life Technologies and supplemented with 10% fetal bovine serum (HyClone, GE Healthcare Life Sciences, Chicago, Illinois, USA).
# (§2) Adherent cell lines HCT-116, NCI-H460 and Hap-1 cells were seeded at a density between 500 and 1500 cells per well in 384-well tissue culture plates (Greiner). After overnight incubation, cells were treated with different concentrations of the test compounds. Suspension cell lines HL-60, K-562, Z-138 and DND-41 were seeded at densities ranging from 2500 to 5500 cells per well in 384-well culture plates containing the test compounds at the same concentration points.
# HCT-116 cells = experiment: Cell proliferation assay (IncuCyte confluence), HCT-116; format: cell-based; details: Homo sapiens; HCT-116 colorectal carcinoma; 72 h; mean of two independent experiments ± SEM; read-out: IC50 antiproliferative activity HCT-116
# Method: as §1, §2
# NCI-H460 cells = experiment: Cell proliferation assay (IncuCyte confluence), NCI-H460; format: cell-based; details: Homo sapiens; NCI-H460 lung carcinoma; 72 h; mean of two independent experiments ± SEM; read-out: IC50 antiproliferative activity NCI-H460
# Method: as §1, §2
# DND-41 cells = experiment: Cell proliferation assay (IncuCyte confluence), DND-41; format: cell-based; details: DND41; DND-41 acute lymphoblastic leukemia; 72 h; mean of two independent experiments ± SEM; read-out: IC50 antiproliferative activity DND-41
# Method: as §1, §2
# HL-60 cells = experiment: Cell proliferation assay (IncuCyte confluence), HL-60; format: cell-based; details: Homo sapiens; HL-60 acute myeloid leukemia; 72 h; mean of two independent experiments ± SEM; read-out: IC50 antiproliferative activity HL-60
# Method: as §1, §2
# K-562 cells = experiment: Cell proliferation assay (IncuCyte confluence), K-562; format: cell-based; details: Homo sapiens, K562; K-562 chronic myeloid leukemia; 72 h; mean of two independent experiments ± SEM; read-out: IC50 antiproliferative activity K-562
# Method: as §1, §2
# Z-138 cells = experiment: Cell proliferation assay (IncuCyte confluence), Z-138; format: cell-based; details: Homo sapiens; Z-138 non-Hodgkin lymphoma; 72 h; mean of two independent experiments ± SEM; read-out: IC50 antiproliferative activity Z-138
# Method: as §1, §2
# [1] = system: panel of cancer cell lines; experiment: Antiproliferative activity, panel of cancer cell lines; format: cell-based; details: panel of cancer cell lines
# Method: as §2
# [2] = GSH reactivity assay (HPLC, DTNB quench); format: physicochemical; details: 500 µM compound, 5 mM GSH, 37 °C, PBS pH 7.4 with EDTA:DMSO 1:1
# Method: In order to determine if these chalcones could react with thiol groups through a hetero-Michael addition reaction, a few selected compounds (9, 10, 13 and 18) were incubated with glutathione (GSH). After different incubation times, the reactions were quenched by adding 5,5′-dithiobis(2-nitrobenzoic acid) (DTNB, Ellman´s reagent) (1:1 ratio with respect to the initial concentration of GSH). The course of the reaction was followed by HPLC, adapting reported procedures. […] Thus, although this assay is only qualitative, the tendency observed among these chalcones nicely fits the reactivity described for α-X-2´3,4,4´-tetramethylchalcones.
# A 500 µM sample of the tested compound was incubated with 5 mM reduced L-glutathione for 24 h at 37 °C with a final volume of 200 μL. As a solvent system, 20 mM PBS buffer pH 7.4 with 2 mM EDTA:DMSO (1:1) was used. To perform the assay, stock solutions of 20 mM of the chalcones (9, 10, 13 and 18) and 15 mM of reduced L-glutathione were freshly prepared for every experiment and then diluted properly to give the final electrophile:nucleophile ratio (1:10). A 5 mM solution of 5,5′-dithiobis(2-nitrobenzoic acid) (DTNB) was prepared in the same solvent system to quench the reaction. After different time points (10 min, 1 h, 4 h and 24 h), an aliquot of 20 μL of the incubation mixture was quenched by adding 20 μL of the DTNB stock solution, mixed thoroughly, and then analyzed by HPLC. HPLC analysis was performed in Agilent 1120 compact LC, column ACE 5 C18-300 (15 cm × 4.6 mm); UV detection was performed at λ = 254 nm. Solvents used were acetonitrile for bottle A and H2O (containing 0.05% TFA) for bottle B, and the flow rate was 1mL/min. The gradients used were: (A) incubations with chalcone 9: from 10% to 80% of solvent A in 10 min; (B) incubations with chalcones 10 and 18: from 10% to 100% of solvent A in 10 min. The new peaks were analysed by LC-MS. As controls, a 500 μM solution of the α,β-unsaturated compound was also analysed, and a 5 mM reduced L-glutathione solution was quenched by adding DNTB at the same time points. In general, after 6 h of incubation, no GSH was detected.
Structure (SMILES),IC50 (XPO1) [µM],IC50 (Hap-1 cells) [µM],IC50 (HCT-116 cells) [µM],IC50 (NCI-H460 cells) [µM],IC50 (DND-41 cells) [µM],IC50 (HL-60 cells) [µM],IC50 (K-562 cells) [µM],IC50 (Z-138 cells) [µM],"Antiproliferative activity, in words [1]","XPO1 inhibition, in words (XPO1)","Reaction with GSH (hetero-Michael addition), qualitative [2]",melting point [°C]
"NC(=O)C(=Cc1cncnc1)C(=O)c1ccc2ccccc2c1 [Compound 5, reference compound]",9.18 ± 3.28,,,,,,,,,,,
"NC(=O)/C(=C/c1cncnc1)C(=O)c1ccc2ccccc2c1 [Compound 15, (E)-2-Carbamoyl-1-(naphthalene-2-yl)-3-(pyrimidin-5-yl)prop-2-en-1-one]",~10,2.1 ± 0.7,5.3 ± 3.1,2.6 ± 0.7,8.9 ± 0.9,5.5 ± 3.6,2.1 ± 0.1,5.1 ± 2.7,slightly less active than the parent chalcone 9,,,
"C/C(=C\c1cncnc1)C(=O)c1ccc2ccccc2c1 [Compound 18, (E)-2-Methyl-1-(naphthalen-2-yl)-3-(pyrimidin-5-yl)prop-2-en-1-one]",> 100,> 100,> 100,> 100,39.1 ± 5.3,≥ 40.9,48.5 ± 2.4,> 100,almost inactive,inactive against XPO1,remained almost unaltered even after 4 h of incubation,
"O=C(/C=C/c1cccnc1)c1ccc2ccccc2c1 [Compound 24, (E)-1-(Naphthalen-2-yl)-3-(pyridin-3-yl)prop-2-en-1-one]",1.27 ± 0.29,1.6 ± 0.1,3.1 ± 0.9,4.3 ± 2.2,1.8 ± 0.5,3.5 ± 2.1,2.2 ± 0.03,1.6 ± 0.1,low µM range,,,123 to 125
"O=C(/C=C/c1ccccn1)c1ccc2ccccc2c1 [Compound 25, (E)-1-(Naphthalen-2-yl)-3-(pyridin-2-yl)prop-2-en-1-one]",7.28 ± 1.34,3.4 ± 0.5,3.9 ± 1.5,51.6 ± 11.7,2.6 ± 0.4,1.8 ± 0.05,4.8 ± 2.8,2.3 ± 0.5,low µM range,,,89 to 90
"O=C(/C=C/c1ccncc1)c1ccc2ccccc2c1 [Compound 26, (E)-1-(Naphthalen-2-yl)-3-(pyridin-4-yl)prop-2-en-1-one]",10.7 ± 3.24,2.3 ± 0.3,1.9 ± 0.4,7.7 ± 1.1,1.9 ± 0.4,0.9 ± 0.2,4 ± 0.2,1.1 ± 0.4,low µM range,,,135 to 137
"COC(=O)/C(=C\c1cncnc1)C(=O)c1cc(OC)cc(OC)c1 [Compound 30, (E)-2-Methoxycarbonyl-1-(3′,5′-dimethoxybenzoyl)-3-(pyrimidin-5′-yl)prop-2-en-1-one]",87.3 ± 4.91,≥ 32,≥ 22.2,17.3 ± 4.6,43.2 ± 6.4,23.4 ± 1.9,42.9 ± 0.1,47.6 ± 1.1,considerably less active than the α-H chalcone 10,almost inactive against XPO1,,81 to 82
"COCCOc1cc(OC)cc(C(=O)/C=C/c2cncnc2)c1 [Compound 33, (E)-1-(3′-Methoxy-5′-(2-methoxyethoxy)phenyl)-3-(pyrimidin-5′’-yl)prop-2-en-1-one]",12.3 ± 1.28,4.3 ± 2.5,34.2 ± 6.5,16.9 ± 4.5,3.7 ± 1.6,10 ± 0.9,37.5 ± 0.9,1.5 ± 0.2,,active,,
"COc1cc(OCC=C(C)C)cc(C(=O)/C=C/c2cncnc2)c1 [Compound 34, (E)-1-(3′-Methoxy-5′-((3-methylbut-2-en-1-yl)oxy)phenyl)-3-(pyrimidin-5′’-yl)prop-2-en-1-one]",1.59 ± 0.36,10 ± 2,52.9 ± 3.6,34.5 ± 5.2,10.1,40.2 ± 10.1,4.1 ± 1.9,4.6 ± 2.7,,active,,
